According to US20260000781A1, “FC CONJUGATES INCLUDING AN INHIBITOR OF CD73 AND USES THEREOF” (Cidara Therapeutics, Inc., priority 2022, published 2026):
Read-outs that look alike come from different tables or passages of the source.

Tested on: human PBMCs inhibited by AMP
Assay: PBMC activation assay by flow cytometry (rescue of AMP suppressed cells)
Format: cell-based
Procedure: (§1) Human PBMCs (StemCell Technologies cat no. 70025) prepared in ImmunoCult™—XF T cell Expansion medium (StemCell Technologies cat no. 10981) were seeded at 1×10^5 cells per well (100 μL of 1×10^6 cells/mL) in the presence or absence of T cell activator anti-CD3/CD28/CD2 (StemCell Technologies cat no. 10970) in 96 well round bottom plates (Corning cat no. 3788). Ten-fold serial dilutions of each test article was prepared, resulting in final concentrations ranging from 0.1 nM-10,000 nM. 50 μL of test article was added to the cells, followed by 50 μL of adenosine 5′ monophosphate (AMP; MilliporeSigma cat no. A1752) for a final concentration of 30 μM. Plates were incubated at 37° C. with 5% CO2 for 72 h. After 72 h the cells were centrifuged for 5 min at 300×g at 4° C. then washed twice with cell staining buffer (BioLegend cat no. 420201). Cells were incubated with Fc block (Unlabeled, Clone: 3070; BD Biosciences cat no. 5642220) for 10 min at 4° C. Cells were stained with anti-human CD25 antibody, clone 2A3, PE (StemCell Technologies cat no. 60153PE) for 20 min at 4° C. protected from light. Cells were washed twice with cell staining buffer and resuspended in 200 μL of cell staining buffer. Samples were acquired using a Cytek Northern Lights flow cytometry system. CD25^+ by flow cytometry was used as the readout to measure PBMC activation after AMP inhibition. Samples were analyzed using FlowJo version 10. Percent rescue […] was plotted using GraphPad Prism Version 6 and EC50 values were generated using nonlinear regression analysis for total PBMCs or CD8^+ T cells using CD25^+ as read-out or granzyme B^+.
as §1, with “test article were prepared, resulting” for “test article was prepared, resulting”, “nonlinear regression analysis.” for “nonlinear regression analysis for total PBMCs or CD8^+ T cells using CD25^+ as read-out or granzyme B^+.”
Human PBMCs (StemCell Technologies cat no. 70025) prepared in ImmunoCult™—XF T cell Expansion medium (StemCell Technologies cat no. 10981) were seeded at 1×10^5 cells per well (100 μL of 1×10^6 cells/mL) in the presence or absence of T cell activator anti-CD3/CD28/CD2 (StemCell Technologies cat no. 10970) in 96 well round bottom plates (Corning cat no. 3788). Ten-fold serial dilutions of each test article was prepared in medium (ranging from 4,000 nM-0.4 nM), resulting in final concentrations ranging from 1,000 nM-0.1 nM. 50 μL of test article was added to the cells, followed by 50 μL of adenosine 5′ monophosphate (AMP; MilliporeSigma cat no. A1752) for a final concentration of 30 μM. […]

[1] = read-out: 30 μM AMP EC50, CD25+ as a read-out, total PBMCs, 72 h
[2] = 30 μM AMP, 72 h, read-out: CD8+CD25+ EC50
[3] = 30 μM AMP, 72 h, read-out: CD8+granzyme B+ EC50

C[C@H](Nc1cc(Cl)nc2c1cnn2[C@@H]1O[C@H](COP(=O)(O)CP(=O)(O)O)[C@@H](O)[C@H]1O)c1ccccc1F [AB680]
EC50 (Homo sapiens, PBMC, read-out: 30 μM AMP EC50 [nM], CD25+ as a read-out, total PBMCs, 72 h): 9 nM | EC50 (Homo sapiens, PBMC, read-out: EC50 [nM] (median, n = 3) CD4+CD25+, 30 μM AMP, 72 h): 10 nM | EC50 (Homo sapiens, PBMC, read-out: EC50 [nM] (median, n = 3) CD8+CD25+, 30 μM AMP, 72 h): 10 nM | EC50 (Homo sapiens, PBMC, read-out: EC50 [nM] (median, n = 3) CD8+Granzyme B+, 30 μM AMP, 72 h): 47 nM | EC50 (Homo sapiens, PBMC, 30 μM AMP, 72 h, CD4+CD25+, CD8+CD25+, CD8+Granzyme B+, read-out: EC50 values (range over the read-outs)): 10 to 54 nM | EC50 (Homo sapiens, PBMC, 30 μM AMP, 72 h, read-out: CD8+CD25+ EC50): 8.1 nM | EC50 (Homo sapiens, PBMC, 30 μM AMP, 72 h, read-out: CD8+granzyme B+ EC50): 1.4 nM

COC[C@](CO)(OC[C@H]1O[C@@H](n2ncc3c(NC4CCCC4)nc(Cl)nc32)[C@H](O)[C@@H]1O)P(=O)(O)O [OP5244]
EC50 [1]: 8 nM | EC50 (read-out: 30 μM AMP EC50, batches of Conjugate 172c, CD25+ as a read-out, 72 h (Table 13)): 17 nM

COC[C@](CO)(OC[C@H]1O[C@@H](n2ncc3c(NC4CCCC4)nc(Cl)nc32)[C@H](O)[C@@H]1O)P(=O)(O)O [OP-5244]
EC50 [2]: 5.9 nM | EC50 [3]: 1.4 nM | EC50 (read-out: EC50 [nM] (median, n = 3) CD4+CD25+, 30 μM AMP, 72 h): 7 nM | EC50 (read-out: EC50 [nM] (median, n = 3) CD8+CD25+, 30 μM AMP, 72 h): 7 nM | EC50 (read-out: EC50 [nM] (median, n = 3) CD8+Granzyme B+, 30 μM AMP, 72 h): 8 nM

O=P(O)(O)COC[C@H]1O[C@@H](n2ncc3c(N4CC5(CCc6ccccc65)C4)nc(Cl)nc32)[C@H](O)[C@@H]1O [SHR170008]
EC50 [2]: 598 nM | EC50 [3]: 212 nM | EC50 [1]: 374 nM
